Experimental data from patent publication US20200253979A1, “THERAPEUTIC METHODS RELATING TO HSP90 INHIBITORS” (AI Therapeutics, Inc., priority 2017, published 2020).

What was measured:
[1] = tested on: mutant EGFR on the cell surface of H1975 cells; experiment: Cell surface EGFR by flow cytometry; format: cell-based; conditions: H1975, 1 μM, 24 hours
Procedure: (§1) FIG. 3A-B: MPC-0767 reduces cell surface EGFR expression in H1975 cells (A) and PC-9 cells (B). Cells were treated with MPC-0767 (1 μM) for 24 hours before being harvested and cell expression of EGFR determined by flow cytometry.
(§2) These findings confirm that MPC-0767 targets and degrades EGFR in lung cancer cell lines.

[2] = tested on: mutant EGFR on the cell surface of PC-9 cells; experiment: Cell surface EGFR by flow cytometry; format: cell-based; conditions: PC-9, 1 μM, 24 hours
Procedure: as §1, §2

[3] = tested on: MV-4-11 cells (FLT3-ITD); experiment: CellTiter-Glo cell viability (single agent and combination); format: cell-based; conditions: MV-4-11, MPC-0767 1 μM, 72 hours
Procedure: Three cell lines which harbor FLT3-ITD were used for the drug combination studies (MV-4-11, MOLM-13, and MOLM-14).
Cells were treated with the drugs (single agent or combination) for 72 hours. Drug combination activity was determined by first measuring cell viability with CellTiter-Glo®, followed by the calculation of the EC50 corresponding to single agent activity, using the R DRC package (R Core Team, 2017). The combination index (CI) values were computed using the Chou-Talalay method (Chou T, Cancer Research., 2010 70(2): 440-6.), based on the viability of each drug alone and in combination, across all concentrations tested. In brief, CI was defined as: […]
Loss of function mutations of KDM6A are observed in FLT3-ITD AML (Garg et al., 2015 Blood 126 (22):2491-501). […] To therapeutically exploit this finding, we hypothesized that inhibiting EZH2, the histone H3K27 methyltransferase that functionally opposes KDM6A, would enhance sensitivity to MPC-0767. To test this hypothesis, a FLT3-ITD cell line (MV-4-11) was used and treated with either of the two clinical stage EZH2 inhibitors, EPZ-6438 and CPI-1205, at 8 different concentrations for 4 days. Following this time, cells were counted, reseeded and treated with 8 concentrations of EZH2 inhibitor alone, 8 concentrations of MPC-0767 alone, or the combination of the two (64 total combinations).

[4] = tested on: phospho-S6 in MOLM-13 cells; experiment: Phospho-S6 by flow cytometry; format: cell-based, human; conditions: 24 hours
Procedure: To determine whether MPC-0767 can promote the degradation of FLT3-ITD and abolish downstream signaling, MV-4-11 and MOLM-13 cells were treated with vehicle or MPC-0767 (1 μM) for 24 hours. Cells were harvested for flow cytometry to assess cell surface FLT3 protein abundance. In addition, the measurement of a key phosphorylation site of S6 (phospho-S6) was used as a marker for oncogenic FLT3-ITD signaling (Zimmerman et al., Blood. 2013 122(22): 3607-3615). Indeed, in both MV-4-11 and MOLM-13 cells treated with MPC-0767 there was a >65% reduction in cell surface FLT3 (FIGS. 10A and 10B, respectively) and >70% reduction in phospho-S6 (FIGS. 10C and 10D, respectively).
We next explored whether the synergistic activity of MPC-0767 and ATO was due to a more complete abrogation of FLT3-ITD oncogenic signaling. […] After this time cells were harvested for the assessment of cell surface FLT3 expression by flow cytometry. To additionally measure the effects of abrogating FLT3, we assessed phospho-ERK (pERK) and phospho-S6 (pS6), as these are two known downstream effectors.

[5] = tested on: BaF3 cells harboring FLT3-ITD; experiment: CellTiter-Glo cell viability; format: cell-based, murine; conditions: Mus musculus, 72 hours
Procedure: After this time cell viability was determined using CTG and EC50 values determined.
(§3) EC50 values were calculated using equation 1 (as described above).
BaF3 cells require the supplementation of IL-3 to activate the IL-3 receptor for growth. However, in BaF3 cells transfected with FLT3-ITD, cells no longer require IL3 as survival is solely driven by oncogenic FLT3 signaling.

[6] = tested on: BaF3 cells harboring FLT3-ITD F691L; experiment: CellTiter-Glo cell viability; format: cell-based, murine; conditions: Mus musculus; BaF3 FLT3-ITD-F691L, 72 hours
Procedure: as §3

[7] = tested on: MOLM16 cells; experiment: CellTiter-Glo cell viability; format: cell-based; conditions: MOLM16, 72 h
[8] = tested on: TUR cells; experiment: CellTiter-Glo cell viability (single agent and combination); format: cell-based; conditions: 72 h
[9] = tested on: NOMO1 (NOMO-1) cells; experiment: as above; format: cell-based; conditions: NOMO1, 72 h
[10] = tested on: PD-L1 on tumor infiltrating leukocytes (CD45+, CD3−); experiment: PD-L1 on tumor infiltrating leukocytes in MC38 tumors; format: in vivo, mouse; conditions: 150 mg/kg QD×7
Procedure: To test if MPC-0767 may induce an anti-tumor immune response in addition to direct cytotoxic activity, down regulation of PD-Ll and the effector/regulatory T-cell ratio was measured in the same MC38 syngeneic model. On day 21, when the average tumor volume was 372 mm^3 in size, a second group of mice (n=6) was treated with 150 mg/kg MPC-0767 QD×7. One day post the last dose (day 28 post inoculation) tumors were harvested from the vehicle and 150 mg/kg MPC-0767 QD×7 group. Tumor infiltrating leukocytes (CD45^+, CD3^−) within the dissociated tumors were analyzed for PD-L1 expression by flow cytometry.

[11] = cited from earlier work
[12] = tested on: MOLM-13 FLT3-ITD AML cell line; experiment: Systemic survival xenograft study, MPC-0767 with venetoclax; conditions: MPC-0767 100-60 mg/kg QD×24, vs vehicle
Procedure: (§4) A systemic survival xenograft study was performed using the MOLM-13 FLT3-ITD harboring AML cell line.
Before tumor cell inoculation, NOD/SCID mice were pre-treated for 2 days with a daily intraperitoneal injection of 100 mg/kg cyclophosphamide to facilitate engraftment of the human MOLM-13 tumor cells. After the injection of cyclophosphamide, the animals were allowed to recover for 24 hours prior to inoculation with human MOLM-13 tumor cells. Each mouse was then inoculated with 1×10^7 MOLM-13 cells in 100 μL PBS via intravenous tail vein injection. Mice were next randomized into 4 groups of 6. […] Viability and body weight loss were monitored daily.

[13] = tested on: OCIAML2 (OCI-AML-2) cells; experiment: CellTiter-Glo cell viability (single agent and combination)
Procedure: (§5) To determine whether MPC-0767 is efficacious against non-FLT3-ITD AML cells, we tested a panel of FLT3-wild type (FLT3-WT) AML cell lines and primary AML blasts for sensitivity to MPC-0767. Cells were treated with MPC-0767 for 72 hours before determining cell viability using the CellTiter-Glo® assay. […] To test whether the combination of MPC-0767 was synergistic with ATO, we tested a panel of AML cell lines. The cell lines include those harboring FLT3-ITD (MOLM-13, MOLM-14 and MV-4-11) or FLT3 WT (ME-1, THP-1, OCI-AML-2, HL60, NOMO-1, TUR and ML-2).

[14] = tested on: ML2 cells; experiment: as above
Procedure: as §5

[15] = tested on: MOLM-13 FLT3-ITD AML cell line; experiment: Systemic survival xenograft study, MPC-0767 with 5′azacitidine; conditions: single agents: MPC-0767 75 mg/kg p.o.; 5′azacitidine 2 mg/kg QD×4 i.p.; vs vehicle
Procedure: as §4
Before tumor cell inoculation, NOD/SCID mice were pre-treated for 2 days with a daily intraperitoneal injection of 100 mg/kg cyclophosphamide to facilitate engraftment of the human MOLM-13 tumor cells. After the injection of cyclophosphamide, the animals were allowed to recover for 24 hours prior to inoculation with human MOLM-13 tumor cells. Each mouse was then inoculated with 1×10^7 MOLM-13 cells in 100 μL PBS via intravenous tail vein injection. Mice were next randomized into 4 groups of 6 mice each. […] Viability and body weight loss were monitored daily.

Structure (SMILES): C[C@H](N)C(=O)O[C@@H](C)C(=O)N1CCC(CCn2c(Sc3cc4c(cc3Br)OCO4)nc3c(N)ncnc32)CC1 [MPC-0767]
- mutant EGFR on the cell surface [1]: decreased
- mutant EGFR on the cell surface [2]: decreased
- viability of KDM6A sgRNA cells vs non-targeting sgRNA [3]: conferred resistance to MPC-0767
- reduction in phospho-S6 ([4]; MOLM-13, 1 μM): > 70%
- pS6 level ([4]; MOLM-13, MPC-0767 800 nM, ATO 625 nM or combination): reduced
- EC50 [5]: 497 nM
- EC50 [6]: 391 nM
- EC50 [7]: 367 nM
- MPC-0767 Sensitivity [7]: Sensitive (cell lines having EC50 values below 1 μM were considered to be sensitive)
- EC50 [8]: 550 nM
- MPC-0767 Sensitivity [8]: Sensitive (cell lines having EC50 values below 1 μM were considered to be sensitive)
- EC50 ([9]; Homo sapiens, NOMO-1): 1450 nM
- MPC-0767 Sensitivity [9]: Resistant (EC50 values above 1 μM considered resistant)
- PD-L1 expression on tumor infiltrating leukocytes [10]: significant reduction of PD-L1
- aqueous solubility [11]: improved aqueous solubility
- increase in median survival [12]: 3.5 days
- EC50 ([13]; Homo sapiens, OCI-AML2, 72 h): 633 nM
- MPC-0767 Sensitivity ([13]; OCIAML2, 72 h): Sensitive (cell lines having EC50 values below 1 μM were considered to be sensitive)
- EC50 ([14]; Homo sapiens, ML-2, 72 h): 1030 nM
- MPC-0767 Sensitivity ([14]; ML2, 72 h): Resistant (EC50 values above 1 μM considered resistant)
- increase in median survival [15]: 5.5 days
